Data set [1] in a line: Standardized method for determining photostability (sun test). The format is physicochemical. The following applies: 5% strength by weight alcoholic solution on glass plate, 40° C.; for Photostability 30 min: 30 min irradiation; for Photostability 2 h: 2 h irradiation. The procedure: Standardized Method for Determining Photostability (Sun Test)
A 5% strength by weight alcoholic solution of the light protection agent to be tested is applied, using an Eppendorf pipette (20 μl), to the milled area of a small glass plate. Owing to the presence of the alcohol, the solution distributes uniformly on the roughened surface of the glass. The amount applied corresponds to the amount of light protection agent required to achieve an average sun protection factor in suncreams. In the test, four small glass plates are irradiated in each case. […] The small glass plates are cooled slightly during irradiation using a water cooling system located at the base of the sun test apparatus. The temperature inside the sun test apparatus is 40° C. during irradiation. After the samples have been irradiated, they are washed with ethanol in a dark 50 ml graduated flask and measured using a photometer. The blank samples are likewise applied to small glass plates and evaporated at room temperature for 30 minutes. Like the other samples, they are washed off with ethanol and diluted to 100 ml and measured.

A short description of data set [2]: UV absorption (absorption maximum and specific absorbance E 1/1). The format is physicochemical. The conditions noted are these: for λmax: UV absorption maximum; for E^1/1: specific absorbance at λmax.
For data set [3] the following is noted: used alone or in combination with UV-B filters; cited from earlier work.

This is an account of results in patent publication US6524560B1, “Use of substituted vinyltetrahydronaphthalenes and vinyl-benzotetrahydropyrans as light protection agents” (BASF Aktiengesellschaft, priority 1999, dated 2003).

Take `CC(=C(C#N)C#N)c1ccc2c(c1)C(C)(C)CCC2` [Example 1]: in data set [1], the “Photostability 30 min” value is given as 96% and the “Photostability 2 h” value is recorded as 90%. Also, in data set [2], the λmax is recorded as 346 nm and the “E^1/1” value stood at 694.

As for `CCOC(=O)C(=Cc1ccc2c(c1)C(C)(C)CCO2)C(=O)OCC` [Example 2], in data set [1], the “Photostability 30 min” value turned out to be 100% and the “Photostability 2 h” value stood at 95%. In data set [2], the λmax stood at 320 nm and the “E^1/1” value stood at 616.

For `CC(=O)C(=Cc1ccc2c(c1)C(C)(C)CCO2)C(C)=O` [Example 3], in data set [1], the “Photostability 30 min” value was 97% and the “Photostability 2 h” value was found to be 84%. In addition, in data set [2], the λmax was determined as 330 nm and the “E^1/1” value was found to be 801.

Consider `Cc1cc2c(cc1C=C(C#N)C#N)C(C)(C)CCC2(C)C` [Example 4], for which, in data set [1], the “Photostability 30 min” value is recorded as 95% and the “Photostability 2 h” value is reported as 83%. Moreover, in data set [2], the λmax was 336 nm and the “E^1/1” value was found to be 700.

Turning to `CC(C)(C)C(=O)/C(C#N)=C/c1ccc2c(c1)C(C)(C)CCC2(C)C` [Example 5], in data set [1], the “Photostability 30 min” value stood at 86% and the “Photostability 2 h” value was 83%. In data set [2], the λmax was 330 nm and the “E^1/1” value is reported as 601.

Consider `CCOC(=O)C(=Cc1ccc2c(c1)C(C)(C)CCC2(C)C)C(=O)OCC` [Example 6], for which, in data set [1], the “Photostability 30 min” value was determined as 100% and the “Photostability 2 h” value is listed as 99%. For the same compound, in data set [2], the λmax is 294 nm and the “E^1/1” value is 411.

Turning to `CCOC(=O)C(=Cc1cc2c(cc1C)C(C)(C)CCC2(C)C)C(=O)OCC` [Example 7], in data set [1], the “Photostability 30 min” value came to 99% and the “Photostability 2 h” value was determined as 95%. For the same compound, in data set [2], the λmax worked out at 294 nm and the “E^1/1” value is recorded as 594.

`CCOC(=O)C(=Cc1cc2c(cc1OC)C(C)(C)CCC2(C)C)C(=O)OCC` [Example 8]: in data set [1], the “Photostability 30 min” value was 100/100% and the “Photostability 2 h” value is 100/100%.

With `COc1ccc(C(=O)CC(=O)c2ccc(C(C)(C)C)cc2)cc1` [PARSOL 1789, 4-(1,1-dimethylethyl)-4′-methoxydibenzoylmethane], the photochemical stability result in data set [3] is “does not have sufficient photochemical stability”.
